Data: ChEMBL document CHEMBL4219073, “Development of selective inhibitors for the treatment of rheumatoid arthritis: (R)-3-(3-(Methyl(7H-pyrrolo[2,3-d]pyrimidin-4-yl)amino)pyrrolidin-1-yl)-3-oxopropanenitrile as a JAK1-selective inhibitor” (Bioorg Med Chem, 2018)

Columns and labels:
in vivo [1] = conditions: ICR, mouse, po, 10 mg/kg
in vivo [2] = conditions: beagle, dog, po, 5 mg/kg
Description: Tmax in Beagle dog at 5 mg/kg, po by LC-MS/MS analysis

in vivo [3] = conditions: ICR, mouse, po, 10 mg/kg; remark: listed apart in the source
in vitro [4] = conditions: human, plasma
Description: Protein binding in human plasma

in vivo [5] = conditions: beagle, dog, po, 5 mg/kg; remark: listed apart in the source
Description: AUC (0 to infinity) in Beagle dog at 5 mg/kg, po by LC-MS/MS analysis

[6] = biological target: Tyrosine-protein kinase JAK2 (Homo sapiens, UniProt O60674); conditions: read-out: INH
Tyrosine-protein kinase JAK2, sequence (O60674 whole entry): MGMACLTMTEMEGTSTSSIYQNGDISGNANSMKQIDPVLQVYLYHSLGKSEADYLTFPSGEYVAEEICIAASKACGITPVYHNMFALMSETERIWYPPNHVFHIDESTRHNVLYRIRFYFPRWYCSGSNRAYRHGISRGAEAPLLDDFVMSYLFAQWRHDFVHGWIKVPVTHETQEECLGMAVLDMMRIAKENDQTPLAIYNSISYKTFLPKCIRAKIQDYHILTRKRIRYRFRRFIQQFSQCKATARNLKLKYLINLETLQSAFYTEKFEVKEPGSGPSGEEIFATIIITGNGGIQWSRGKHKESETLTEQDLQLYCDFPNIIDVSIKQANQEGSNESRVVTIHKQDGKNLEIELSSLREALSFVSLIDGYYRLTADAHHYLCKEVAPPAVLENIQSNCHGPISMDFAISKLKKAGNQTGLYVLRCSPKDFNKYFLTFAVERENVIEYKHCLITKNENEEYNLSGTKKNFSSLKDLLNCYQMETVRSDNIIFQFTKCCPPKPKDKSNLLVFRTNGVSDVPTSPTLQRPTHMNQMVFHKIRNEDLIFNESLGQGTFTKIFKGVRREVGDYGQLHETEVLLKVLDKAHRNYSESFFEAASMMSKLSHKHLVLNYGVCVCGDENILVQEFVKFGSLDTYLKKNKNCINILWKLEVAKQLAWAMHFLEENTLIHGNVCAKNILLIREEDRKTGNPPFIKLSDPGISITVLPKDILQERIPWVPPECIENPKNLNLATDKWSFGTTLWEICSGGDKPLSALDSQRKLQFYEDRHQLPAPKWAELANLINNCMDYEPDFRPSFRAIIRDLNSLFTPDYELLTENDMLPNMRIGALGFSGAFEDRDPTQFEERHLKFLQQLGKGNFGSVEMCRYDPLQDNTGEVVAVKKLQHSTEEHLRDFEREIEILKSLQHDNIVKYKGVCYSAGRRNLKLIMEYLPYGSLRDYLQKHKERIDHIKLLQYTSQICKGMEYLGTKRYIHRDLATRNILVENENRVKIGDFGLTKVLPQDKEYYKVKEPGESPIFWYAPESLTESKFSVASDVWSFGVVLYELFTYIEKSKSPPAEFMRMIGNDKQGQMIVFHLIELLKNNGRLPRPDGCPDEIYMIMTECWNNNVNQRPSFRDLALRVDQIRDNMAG
Description: Inhibition of recombinant human JAK2 (808-end residues) at 10 uM in presence of ATP relative to control

in vivo [7] = conditions: Sprague-Dawley, rat, iv, 5 mg/kg
Description: MRT in Sprague-Dawley rat at 5 mg/kg, iv by LC-MS/MS analysis

CYP3A4 = CYP3A4 (Homo sapiens, UniProt P08684); experiment: in vitro
CYP3A4, sequence (P08684 whole entry): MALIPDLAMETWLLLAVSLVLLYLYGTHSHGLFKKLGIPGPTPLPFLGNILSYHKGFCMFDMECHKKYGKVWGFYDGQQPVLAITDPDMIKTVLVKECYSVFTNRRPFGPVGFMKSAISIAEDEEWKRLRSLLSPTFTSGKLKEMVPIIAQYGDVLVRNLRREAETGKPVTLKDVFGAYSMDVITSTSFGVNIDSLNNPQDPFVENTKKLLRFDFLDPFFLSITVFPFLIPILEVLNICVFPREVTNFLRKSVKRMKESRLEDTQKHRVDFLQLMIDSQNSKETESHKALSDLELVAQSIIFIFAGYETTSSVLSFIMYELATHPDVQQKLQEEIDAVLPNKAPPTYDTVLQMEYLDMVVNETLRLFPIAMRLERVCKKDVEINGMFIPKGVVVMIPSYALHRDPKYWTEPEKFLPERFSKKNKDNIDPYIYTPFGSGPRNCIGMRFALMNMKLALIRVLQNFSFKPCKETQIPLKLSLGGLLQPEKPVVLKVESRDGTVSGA
Description: Inhibition of CYP3A4 (unknown origin) assessed as residual activity at 10 uM relative to control

in vivo [8] = conditions: Sprague-Dawley, rat, po, 10 mg/kg
in vivo [9] = conditions: beagle, dog, iv, 3 mg/kg
Description: MRT in Beagle dog at 3 mg/kg, iv by LC-MS/MS analysis

in vitro [10] = conditions: human, Caco-2
in vivo [11] = conditions: ICR, mouse, po, 10 mg/kg; remark: listed apart in the source
CYP2C9 = CYP2C9 (Homo sapiens, UniProt P11712); experiment: in vitro
CYP2C9, sequence (P11712 whole entry): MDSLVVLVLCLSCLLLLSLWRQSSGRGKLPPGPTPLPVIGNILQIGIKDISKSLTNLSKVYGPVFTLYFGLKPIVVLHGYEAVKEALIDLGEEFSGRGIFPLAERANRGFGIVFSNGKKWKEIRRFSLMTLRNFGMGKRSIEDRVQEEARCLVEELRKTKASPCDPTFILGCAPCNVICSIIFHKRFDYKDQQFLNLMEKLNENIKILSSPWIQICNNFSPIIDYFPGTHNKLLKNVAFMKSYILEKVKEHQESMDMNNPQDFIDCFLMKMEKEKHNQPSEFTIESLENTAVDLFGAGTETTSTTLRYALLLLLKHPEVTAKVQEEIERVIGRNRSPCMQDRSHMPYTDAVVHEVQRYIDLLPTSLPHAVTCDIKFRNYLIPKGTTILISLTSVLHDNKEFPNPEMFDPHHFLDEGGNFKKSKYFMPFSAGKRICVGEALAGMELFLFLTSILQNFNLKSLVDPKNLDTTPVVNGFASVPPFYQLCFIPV
Description: Inhibition of CYP2C9 (unknown origin) assessed as residual activity at 10 uM relative to control

[12] = biological target: Voltage-gated inwardly rectifying potassium channel KCNH2 (Homo sapiens, UniProt Q12809)
Voltage-gated inwardly rectifying potassium channel KCNH2, sequence (Q12809 whole entry): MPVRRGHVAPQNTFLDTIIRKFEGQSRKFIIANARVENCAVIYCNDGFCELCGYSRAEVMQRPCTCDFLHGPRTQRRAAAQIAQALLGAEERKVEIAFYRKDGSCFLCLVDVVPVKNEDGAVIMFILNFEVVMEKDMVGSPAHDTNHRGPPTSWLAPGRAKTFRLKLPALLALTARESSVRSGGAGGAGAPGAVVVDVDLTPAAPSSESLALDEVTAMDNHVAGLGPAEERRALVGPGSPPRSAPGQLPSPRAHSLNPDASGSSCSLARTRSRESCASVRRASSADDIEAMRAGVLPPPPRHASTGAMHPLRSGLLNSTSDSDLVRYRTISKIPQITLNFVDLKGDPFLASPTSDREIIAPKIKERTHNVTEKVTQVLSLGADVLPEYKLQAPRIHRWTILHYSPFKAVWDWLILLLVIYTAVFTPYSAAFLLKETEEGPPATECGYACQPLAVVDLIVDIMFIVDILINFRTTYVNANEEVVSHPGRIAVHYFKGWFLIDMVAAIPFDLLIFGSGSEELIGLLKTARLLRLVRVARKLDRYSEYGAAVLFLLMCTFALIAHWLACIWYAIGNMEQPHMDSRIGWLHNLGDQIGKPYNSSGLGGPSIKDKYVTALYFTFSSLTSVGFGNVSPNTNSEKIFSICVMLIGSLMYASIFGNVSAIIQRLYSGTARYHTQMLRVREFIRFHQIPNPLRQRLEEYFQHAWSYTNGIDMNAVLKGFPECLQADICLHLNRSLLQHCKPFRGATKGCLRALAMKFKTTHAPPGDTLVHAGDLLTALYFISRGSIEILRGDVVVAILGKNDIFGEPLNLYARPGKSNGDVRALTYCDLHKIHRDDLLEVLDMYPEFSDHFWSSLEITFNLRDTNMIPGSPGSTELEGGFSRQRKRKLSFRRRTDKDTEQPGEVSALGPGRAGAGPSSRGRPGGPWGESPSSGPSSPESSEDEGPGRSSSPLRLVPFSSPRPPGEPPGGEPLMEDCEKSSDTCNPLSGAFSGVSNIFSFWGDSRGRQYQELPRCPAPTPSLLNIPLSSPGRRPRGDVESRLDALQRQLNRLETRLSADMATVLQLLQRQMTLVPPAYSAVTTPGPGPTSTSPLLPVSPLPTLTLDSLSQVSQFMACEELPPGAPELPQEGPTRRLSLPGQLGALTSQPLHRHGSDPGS
Description: Inhibition of human ERG expressed in HEK293 cells by automated patch clamp method

in vivo [13] = conditions: ICR, mouse, po, 10 mg/kg; remark: listed apart in the source
Description: MRT in ICR mouse at 10 mg/kg, po by LC-MS/MS analysis

CYP1A2 = biological target: T1, CYP1A2 (Homo sapiens, UniProt P05177); experiment: in vitro
T1 sequence (P05177 whole entry): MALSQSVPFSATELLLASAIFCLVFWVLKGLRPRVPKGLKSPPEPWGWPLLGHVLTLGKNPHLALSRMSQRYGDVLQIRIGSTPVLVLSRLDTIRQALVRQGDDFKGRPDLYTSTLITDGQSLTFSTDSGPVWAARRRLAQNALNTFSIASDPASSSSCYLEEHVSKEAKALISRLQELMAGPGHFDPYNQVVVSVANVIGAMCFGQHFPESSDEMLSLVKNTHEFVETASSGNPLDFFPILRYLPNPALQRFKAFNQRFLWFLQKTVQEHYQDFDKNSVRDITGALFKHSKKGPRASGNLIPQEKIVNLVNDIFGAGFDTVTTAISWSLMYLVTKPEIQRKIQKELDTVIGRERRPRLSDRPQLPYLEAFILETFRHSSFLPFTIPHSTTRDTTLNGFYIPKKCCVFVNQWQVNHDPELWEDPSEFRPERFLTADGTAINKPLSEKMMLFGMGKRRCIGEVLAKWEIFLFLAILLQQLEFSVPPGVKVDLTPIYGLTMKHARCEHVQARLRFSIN
Description: Inhibition of CYP1A2 (unknown origin) assessed as residual activity at 10 uM relative to control

in vivo [14] = conditions: beagle, dog, po, 5 mg/kg; remark: listed apart in the source
Description: Half life in Beagle dog at 5 mg/kg, po by LC-MS/MS analysis

in vivo [15] = conditions: beagle, dog, po, 5 mg/kg; remark: listed apart in the source
Description: Cmax in Beagle dog at 5 mg/kg, po by LC-MS/MS analysis

in vivo [16] = conditions: Sprague-Dawley, rat, po, 10 mg/kg; remark: listed apart in the source
in vivo [17] = conditions: beagle, dog, iv, 3 mg/kg; remark: listed apart in the source
Description: Half life in Beagle dog at 3 mg/kg, iv by LC-MS/MS analysis

Canis familiaris = organism: Canis familiaris; conditions: dog, in vivo, po, 5 mg/kg
Description: Oral bioavailability in Beagle dog at 5 mg/kg by LC-MS/MS analysis

in vitro [18] = conditions: rat, microsomes
Description: Metabolic stability in rat liver microsomes assessed as parent compound remaining after 30 mins

in vivo [19] = conditions: ICR, mouse, iv, 5 mg/kg
Description: MRT in ICR mouse at 5 mg/kg, iv by LC-MS/MS analysis

CYP2D6 = CYP2D6 (Homo sapiens, UniProt P10635); experiment: in vitro
CYP2D6, sequence (P10635 whole entry): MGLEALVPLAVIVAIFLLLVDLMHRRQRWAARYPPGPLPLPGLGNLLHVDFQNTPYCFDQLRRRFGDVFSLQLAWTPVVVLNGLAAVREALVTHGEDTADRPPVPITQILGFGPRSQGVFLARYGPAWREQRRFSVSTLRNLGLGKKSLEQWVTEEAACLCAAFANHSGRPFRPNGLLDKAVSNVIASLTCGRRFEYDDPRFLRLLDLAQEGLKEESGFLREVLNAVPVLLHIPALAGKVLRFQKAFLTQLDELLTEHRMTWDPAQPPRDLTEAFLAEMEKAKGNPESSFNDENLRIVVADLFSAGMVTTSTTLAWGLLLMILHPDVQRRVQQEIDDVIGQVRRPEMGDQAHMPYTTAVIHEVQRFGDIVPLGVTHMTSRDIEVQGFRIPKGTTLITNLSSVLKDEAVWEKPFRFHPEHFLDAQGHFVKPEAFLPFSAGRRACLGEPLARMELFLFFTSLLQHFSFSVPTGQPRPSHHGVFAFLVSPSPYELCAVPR
Description: Inhibition of CYP2D6 (unknown origin) assessed as residual activity at 10 uM relative to control

in vivo [20] = conditions: ICR, mouse, iv, 5 mg/kg; remark: listed apart in the source
Description: AUC (0 to infinity) in ICR mouse at 5 mg/kg, iv by LC-MS/MS analysis

in vitro [21] = conditions: human, plasma; remark: listed apart in the source
Description: Metabolic stability in human plasma assessed as parent compound remaining after 30 mins

in vivo [22] = conditions: Sprague-Dawley, rat, iv, 5 mg/kg; remark: listed apart in the source
Description: AUC (0 to infinity) in Sprague-Dawley rat at 5 mg/kg, iv by LC-MS/MS analysis

in vivo [23] = conditions: beagle, dog, iv, 3 mg/kg; remark: listed apart in the source
in vitro [24] = conditions: rat, plasma
Description: Metabolic stability in rat plasma assessed as parent compound remaining after 30 mins

in vivo [25] = conditions: Sprague-Dawley, rat, iv, 5 mg/kg; remark: listed apart in the source
Description: AUC (0 to t) in Sprague-Dawley rat at 5 mg/kg, iv by LC-MS/MS analysis

in vivo [26] = conditions: Sprague-Dawley, rat, po, 10 mg/kg; remark: listed apart in the source
Description: Half life in Sprague-Dawley rat at 10 mg/kg, po by LC-MS/MS analysis

in vivo [27] = conditions: ICR, mouse, iv, 5 mg/kg; remark: listed apart in the source
Description: AUC (0 to t) in ICR mouse at 5 mg/kg, iv by LC-MS/MS analysis

in vitro [28] = conditions: rat, plasma; remark: listed apart in the source
Description: Metabolic stability in rat plasma assessed as parent compound remaining after 120 mins

in vivo [29] = conditions: Sprague-Dawley, rat, po, 10 mg/kg; remark: listed apart in the source
Description: MRT in Sprague-Dawley rat at 10 mg/kg, po by LC-MS/MS analysis

in vivo [30] = conditions: beagle, dog, po, 5 mg/kg; remark: listed apart in the source
Description: MRT in Beagle dog at 5 mg/kg, po by LC-MS/MS analysis

in vivo [31] = conditions: beagle, dog, po, 5 mg/kg; remark: listed apart in the source
Description: AUC (0 to t) in Beagle dog at 5 mg/kg, po by LC-MS/MS analysis

in vivo [32] = conditions: ICR, mouse, po, 10 mg/kg; remark: listed apart in the source
in vivo [33] = conditions: Sprague-Dawley, rat, iv, 5 mg/kg; remark: listed apart in the source
Description: Half life in Sprague-Dawley rat at 5 mg/kg, iv by LC-MS/MS analysis

in vitro [34] = conditions: human, plasma; remark: listed apart in the source
Description: Metabolic stability in human plasma assessed as parent compound remaining after 120 mins

in vitro [35] = conditions: human, Caco-2; remark: listed apart in the source
CYP2C19 = CYP2C19 (Homo sapiens, UniProt P33261); experiment: in vitro
CYP2C19, sequence (P33261 whole entry): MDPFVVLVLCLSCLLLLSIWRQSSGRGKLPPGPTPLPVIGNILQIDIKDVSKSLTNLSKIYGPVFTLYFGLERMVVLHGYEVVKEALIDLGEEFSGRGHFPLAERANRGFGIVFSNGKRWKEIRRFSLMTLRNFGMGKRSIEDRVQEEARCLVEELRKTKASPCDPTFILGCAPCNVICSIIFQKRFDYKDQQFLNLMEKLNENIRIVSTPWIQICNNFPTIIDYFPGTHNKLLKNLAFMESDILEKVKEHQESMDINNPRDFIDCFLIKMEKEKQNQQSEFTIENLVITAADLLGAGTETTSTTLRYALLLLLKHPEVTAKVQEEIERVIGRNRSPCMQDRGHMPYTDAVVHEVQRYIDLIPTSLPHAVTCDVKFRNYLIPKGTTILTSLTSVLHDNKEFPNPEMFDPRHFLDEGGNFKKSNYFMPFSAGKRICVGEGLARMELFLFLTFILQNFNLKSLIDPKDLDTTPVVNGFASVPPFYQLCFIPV
Description: Inhibition of CYP2C19 (unknown origin) assessed as residual activity at 10 uM relative to control

in vivo [36] = conditions: ICR, mouse, po, 10 mg/kg; remark: listed apart in the source
Description: Half life in ICR mouse at 10 mg/kg, po by LC-MS/MS analysis

in vivo [37] = conditions: Sprague-Dawley, rat, po, 10 mg/kg; remark: listed apart in the source
in vivo [38] = conditions: ICR, mouse, iv, 5 mg/kg; remark: listed apart in the source
Description: Half life in ICR mouse at 5 mg/kg, iv by LC-MS/MS analysis

Mus musculus = organism: Mus musculus; conditions: in vivo, po, 10 mg/kg
in vitro [39] = conditions: mouse, microsomes
Description: Metabolic stability in mouse liver microsomes assessed as parent compound remaining after 30 mins

in vivo [40] = conditions: beagle, dog, iv, 3 mg/kg; remark: listed apart in the source
in vitro [41] = conditions: human, microsomes
Description: Metabolic stability in human liver microsomes assessed as parent compound remaining after 30 mins

in vitro [42] = conditions: rat, plasma; remark: listed apart in the source
Description: Protein binding in rat plasma

in vivo [43] = conditions: Sprague-Dawley, rat, po, 10 mg/kg; remark: listed apart in the source
in vitro [44] = conditions: dog, microsomes
Description: Metabolic stability in dog liver microsomes assessed as parent compound remaining after 30 mins

## CN(c1ncnc2[nH]ccc12)[C@@H]1CCN(C(=O)CC#N)C1
In vivo [1]
  AUC(0-t): 1900 ng·h/mL
In vivo [2]
  Tmax: 1.1 h
In vivo [3]
  AUC(0-inf): 2100 ng·h/mL
In vitro [4]
  fraction unbound: 0.853
In vivo [5]
  AUC(0-inf): 6500 ng·h/mL
[6]
  inhibition at 10 µM: > 90%
In vivo [7]
  MRT: 54 min
CYP3A4
  activity at 10 µM: 98.2%
In vivo [8]
  Tmax: 18 min
In vivo [9]
  MRT: 2.4 h
In vitro [10]
  Papp B→A: 7.7 ×10⁻⁶ cm/s
In vivo [11]
  Cmax: 1000 ng/mL
CYP2C9
  activity at 10 µM: > 100%
[12]
  IC50: 93 µM
In vivo [13]
  MRT: 3.1 h
CYP1A2
  activity at 10 µM: 89.3%
In vivo [14]
  half-life: 102 min
In vivo [15]
  Cmax: 1900 ng/mL
In vivo [16]
  AUC(0-t): 4100 ng·h/mL
In vivo [17]
  half-life: 96 min
Canis familiaris
  F: 180%
In vitro [18]
  remaining at 0.5 h: 92.8%
In vivo [19]
  MRT: 1.4 h
CYP2D6
  activity at 10 µM: > 100%
In vivo [20]
  AUC(0-inf): 680 ng·h/mL
In vitro [21]
  remaining at 0.5 h: 96.3%
In vivo [22]
  AUC(0-inf): 950 ng·h/mL
In vivo [23]
  AUC(0-t): 2100 ng·h/mL
In vitro [24]
  remaining at 0.5 h: > 100%
In vivo [25]
  AUC(0-t): 930 ng·h/mL
In vivo [26]
  half-life: 126 min
In vivo [27]
  AUC(0-t): 510 ng·h/mL
In vitro [28]
  remaining at 2 h: > 100%
In vivo [29]
  MRT: 2.9 h
In vivo [30]
  MRT: 3.1 h
In vivo [31]
  AUC(0-t): 6400 ng·h/mL
In vivo [32]
  Tmax: 18 min
In vivo [33]
  half-life: 42 min
In vitro [34]
  remaining at 2 h: 99.8%
In vitro [35]
  Papp A→B: 3.8 ×10⁻⁶ cm/s
CYP2C19
  activity at 10 µM: 91.8%
In vivo [36]
  half-life: 126 min
In vivo [37]
  Cmax: 1900 ng/mL
In vivo [38]
  half-life: 54 min
Mus musculus
  F: 190%
In vitro [39]
  remaining at 0.5 h: > 100%
In vivo [40]
  AUC(0-inf): 2200 ng·h/mL
In vitro [41]
  remaining at 0.5 h: 97.6%
In vitro [42]
  fraction unbound: 0.823
In vivo [43]
  AUC(0-inf): 4300 ng·h/mL
In vitro [44]
  remaining at 0.5 h: 92.8%
